Where two headings read alike, the source gives them in different places.
Assays:
rat primary hepatocytes [1] = assay: MMP assay in rat primary hepatocytes; details: for IC50: Rattus norvegicus, Hepatocyte
HepG2 cells [2] = details: cited from earlier work
rat primary hepatocytes [3] = test system: rat primary hepatocytes
HepG2 cells [4] = assay: cells; details: Homo sapiens; for Emax: HepG2, read-out: MMP assays efficacy (%) HepG2
[5] = read-out: MMP assays IC50 (µM) qHTS-HepG2
[6] = HepG2, read-out: MMP assays IC50 (µM) HepG2
[7] = read-out: MMP assays IC50 (µM) Rat Hepatocytes
[8] = read-out: MMP assays IC50 (µM), qHTS-HepG2

O=Nc1ccc(O)cc1 [Compound 4-Nitrosophenol]
MMP assays IC50 (µM) Rat Hepatocytes (rat primary hepatocytes [1]): inactive | MMP assays efficacy (%) qHTS-HepG2 (HepG2 cells [2]): -87±9% | IC50 (HepG2 cells [2]; [5]): 4.71 ± 2.31 µM | MMP assays efficacy (%) Rat Hepatocytes (rat primary hepatocytes [3]): inactive | IC50 (HepG2 cells [4]; [6]): 15.8 µM | Emax (HepG2 cells [4]): 61%

COc1ccc2cc3[n+](cc2c1OC)CCc1cc2c(cc1-3)OCO2 [Berberine chloride]
IC50 (rat primary hepatocytes [1]; [7]): 6.03 ± 3.78 µM | MMP assays efficacy (%) qHTS-HepG2 (HepG2 cells [2]): -95±8% | IC50 (HepG2 cells [2]; [5]): 2.03 ± 1.29 µM | MMP assays efficacy (%) Rat Hepatocytes (rat primary hepatocytes [3]): -101±32% | IC50 (HepG2 cells [4]; [6]): 3.46 µM | Emax (HepG2 cells [4]): 92%

Nc1ccc(N)cc1 [1,4-Benzenediamine]
MMP assays IC50 (µM) Rat Hepatocytes (rat primary hepatocytes [1]): inactive | MMP assays efficacy (%) qHTS-HepG2 (HepG2 cells [2]): -85±6% | IC50 (HepG2 cells [2]; [5]): 3.28 ± 0.42 µM | MMP assays efficacy (%) Rat Hepatocytes (rat primary hepatocytes [3]): inactive | IC50 (HepG2 cells [4]; [6]): 2.18 µM | Emax (HepG2 cells [4]): 71%

CCc1ccccc1O [Compound 2-Ethylphenol]
MMP assays IC50 (µM) Rat Hepatocytes (rat primary hepatocytes [1]): inactive | MMP assays IC50 (µM) qHTS-HepG2 (HepG2 cells [2]): inactive | MMP assays efficacy (%) qHTS-HepG2 (HepG2 cells [2]): inactive | MMP assays efficacy (%) Rat Hepatocytes (rat primary hepatocytes [3]): inactive | IC50 (HepG2 cells [4]; [6]): 15.8 µM | Emax (HepG2 cells [4]): 72%

CC(=O)[C@]1(O)Cc2c(O)c3c(c(O)c2[C@@H](O[C@H]2C[C@H](N)[C@H](O)[C@H](C)O2)C1)C(=O)c1c(O)cccc1C3=O [Carminomycin]
MMP assays IC50 (µM) Rat Hepatocytes (rat primary hepatocytes [1]): inactive | MMP assays efficacy (%) qHTS-HepG2 (HepG2 cells [2]): -91±17% | IC50 (HepG2 cells [2]; [5]): 1.25 ± 0.73 µM | MMP assays efficacy (%) Rat Hepatocytes (rat primary hepatocytes [3]): inactive | IC50 (HepG2 cells [4]; [6]): 21.8 µM | Emax (HepG2 cells [4]): 68%

Cc1cc(O)c2c3c4c(cc(O)c13)C(C)(C)C(=O)c1c(O)cc(O)c(c1-4)C2=O [Geliomycin]
IC50 (rat primary hepatocytes [1]; [7]): 0.55 ± 0.31 µM | MMP assays efficacy (%) qHTS-HepG2 (HepG2 cells [2]): -120±11% | IC50 (HepG2 cells [2]; [8]): 0.52 ± 0.04 µM | MMP assays efficacy (%) Rat Hepatocytes (rat primary hepatocytes [3]): -101±18% | IC50 (HepG2 cells [4]; [6]): 0.19 µM | Emax (HepG2 cells [4]): 94%

CN(C)c1ccc(C(=C2C=CC(=[N+](C)C)C=C2)c2ccc(N(C)C)cc2)cc1 [Gentian violet]
IC50 (rat primary hepatocytes [1]; [7]): 1.34 ± 0.11 µM | MMP assays efficacy (%) qHTS-HepG2 (HepG2 cells [2]): -92±4% | IC50 (HepG2 cells [2]; [8]): 0.08 ± 0.04 µM | MMP assays efficacy (%) Rat Hepatocytes (rat primary hepatocytes [3]): -70±14% | IC50 (HepG2 cells [4]; [6]): 0.35 µM | Emax (HepG2 cells [4]): 92%

CC(C)(C)c1cc([N+](=O)[O-])cc(C(C)(C)C)c1O [2,6-di-tert-butyl-4-nitrophenol]
IC50 (rat primary hepatocytes [1]; 1 h, read-out: IC50 in rat primary hepatocytes (MMP, tier-one retest)): 0.29 µM | MMP assays efficacy (%) qHTS-HepG2 (HepG2 cells [2]): -96±13% | IC50 (HepG2 cells [2]; [5]): 0.17 ± 0.05 µM | MMP assays efficacy (%) Rat Hepatocytes (rat primary hepatocytes [3]): -109±11% | IC50 (HepG2 cells [4]; HepG2, read-out: IC50 in HepG2 cells (MMP, tier-one retest)): 0.11 µM | Emax (HepG2 cells [4]): 108%

Oc1cc(Cl)cc(Cl)c1 [3,5-Dichlorophenol]
IC50 (rat primary hepatocytes [1]; [7]): 46.9 ± 8.44 µM | MMP assays efficacy (%) qHTS-HepG2 (HepG2 cells [2]): -96±8% | IC50 (HepG2 cells [2]; [5]): 9.79 µM | MMP assays efficacy (%) Rat Hepatocytes (rat primary hepatocytes [3]): -81±35% | IC50 (HepG2 cells [4]; [6]): 11.2 µM | Emax (HepG2 cells [4]): 113%

O=C=Nc1ccc(Cl)cc1 [4-Chlorophenyl isocyanate]
IC50 (rat primary hepatocytes [1]; [7]): 1.56 ± 0.39 µM | MMP assays efficacy (%) qHTS-HepG2 (HepG2 cells [2]): -110±18% | IC50 (HepG2 cells [2]; [5]): 0.27 ± 0.11 µM | MMP assays efficacy (%) Rat Hepatocytes (rat primary hepatocytes [3]): -98±7% | IC50 (HepG2 cells [4]; [6]): 0.71 µM | Emax (HepG2 cells [4]): 99%

CN1C(C(=O)Nc2ccccn2)=C(O)c2ccccc2S1(=O)=O [Piroxicam]
IC50 (rat primary hepatocytes [1]; [7]): 4.79 ± 1.53 µM | MMP assays efficacy (%) qHTS-HepG2 (HepG2 cells [2]): -109±18% | IC50 (HepG2 cells [2]; [8]): 8.21 ± 1.71 µM | MMP assays efficacy (%) Rat Hepatocytes (rat primary hepatocytes [3]): -84±3% | IC50 (HepG2 cells [4]; [6]): 5.88 µM | Emax (HepG2 cells [4]): 103%

CC(=O)N1CCN(c2ccc(OCC3COC(Cn4ccnc4)(c4ccc(Cl)cc4Cl)O3)cc2)CC1 (stereo not drawn) [Ketoconazole]
MMP assays IC50 (µM) Rat Hepatocytes (rat primary hepatocytes [1]): inactive | MMP assays efficacy (%) qHTS-HepG2 (HepG2 cells [2]): -56±14% | IC50 (HepG2 cells [2]; [8]): 10.8 ± 3.25 µM | MMP assays efficacy (%) Rat Hepatocytes (rat primary hepatocytes [3]): inactive | IC50 (HepG2 cells [4]; [6]): 5.48 µM | Emax (HepG2 cells [4]): 55%

O=C(CCc1ccc(O)cc1)c1c(O)cc(O)cc1O [Phloretin]
IC50 (rat primary hepatocytes [1]; [7]): 10.6 ± 4.98 µM | MMP assays efficacy (%) qHTS-HepG2 (HepG2 cells [2]): -107±12% | IC50 (HepG2 cells [2]; [8]): 4.26 ± 1.22 µM | MMP assays efficacy (%) Rat Hepatocytes (rat primary hepatocytes [3]): -74±26% | IC50 (HepG2 cells [4]; [6]): 11.2 µM | Emax (HepG2 cells [4]): 100%

CC(=O)Oc1ccc(C2(c3ccc(OC(C)=O)cc3)C(=O)Nc3ccccc32)cc1 [Oxyphenisatin acetate]
IC50 (rat primary hepatocytes [1]; [7]): 20.6 ± 1.68 µM | MMP assays efficacy (%) qHTS-HepG2 (HepG2 cells [2]): -63±8% | IC50 (HepG2 cells [2]; [8]): 5.49 ± 4.6 µM | MMP assays efficacy (%) Rat Hepatocytes (rat primary hepatocytes [3]): -71±28% | IC50 (HepG2 cells [4]; [6]): 17.3 µM | Emax (HepG2 cells [4]): 118%

OC(c1ccc(Cl)cc1)(c1cncnc1)c1ccccc1Cl (stereo not drawn) [Fenarimol]
IC50 (rat primary hepatocytes [1]; [7]): 33.5 ± 2.73 µM | MMP assays efficacy (%) qHTS-HepG2 (HepG2 cells [2]): -77±13% | IC50 (HepG2 cells [2]; [5]): 42.6 ± 21.9 µM | MMP assays efficacy (%) Rat Hepatocytes (rat primary hepatocytes [3]): -81±45% | IC50 (HepG2 cells [4]; [6]): 35.5 µM | Emax (HepG2 cells [4]): 81%

C=CC[C@]1(O)CC[C@H]2[C@@H]3CCC4=CCCC[C@@H]4[C@H]3CC[C@@]21C [Allylestrenol]
MMP assays IC50 (µM) Rat Hepatocytes (rat primary hepatocytes [1]): inactive | MMP assays efficacy (%) qHTS-HepG2 (HepG2 cells [2]): -52±13% | IC50 (HepG2 cells [2]; [5]): 12.8 ± 3.68 µM | MMP assays efficacy (%) Rat Hepatocytes (rat primary hepatocytes [3]): inactive | IC50 (HepG2 cells [4]; [6]): 31.6 µM | Emax (HepG2 cells [4]): 97%

CC1(C)[C@H](C=C(Cl)Cl)[C@H]1C(=O)OCc1c(F)c(F)cc(F)c1F [Transfluthrin]
MMP assays IC50 (µM) Rat Hepatocytes (rat primary hepatocytes [1]): inactive | MMP assays efficacy (%) qHTS-HepG2 (HepG2 cells [2]): -89±13% | IC50 (HepG2 cells [2]; [8]): 25 ± 4.09 µM | MMP assays efficacy (%) Rat Hepatocytes (rat primary hepatocytes [3]): inactive | IC50 (HepG2 cells [4]; [6]): 19.4 µM | Emax (HepG2 cells [4]): 70%

OC(c1ccc(Cl)cc1)(c1ccc(Cl)cc1)C(Cl)(Cl)Cl [Dicofol]
IC50 (rat primary hepatocytes [1]; [7]): 24.6 ± 9.27 µM | MMP assays efficacy (%) qHTS-HepG2 (HepG2 cells [2]): -98±4% | IC50 (HepG2 cells [2]; [5]): 9.69 ± 3.51 µM | MMP assays efficacy (%) Rat Hepatocytes (rat primary hepatocytes [3]): -122±51% | IC50 (HepG2 cells [4]; [6]): 8.91 µM | Emax (HepG2 cells [4]): 101%

Clc1ccc(C(c2ccccc2Cl)C(Cl)(Cl)Cl)cc1 (stereo not drawn) [o,p'-DDT]
MMP assays IC50 (µM) Rat Hepatocytes (rat primary hepatocytes [1]): inactive | MMP assays efficacy (%) qHTS-HepG2 (HepG2 cells [2]): -86±11% | IC50 (HepG2 cells [2]; [8]): 24 ± 12.1 µM | MMP assays efficacy (%) Rat Hepatocytes (rat primary hepatocytes [3]): inactive | IC50 (HepG2 cells [4]; [6]): 25.1 µM | Emax (HepG2 cells [4]): 101%

Nc1ccc(Cc2ccc(N)c(Cl)c2)cc1Cl [4,4'-Methylenebis(2-chloroaniline)]
IC50 (rat primary hepatocytes [1]; [7]): 56.2 µM | MMP assays efficacy (%) qHTS-HepG2 (HepG2 cells [2]): -98±24% | IC50 (HepG2 cells [2]; [5]): 49.1 ± 17 µM | MMP assays efficacy (%) Rat Hepatocytes (rat primary hepatocytes [3]): -52±15% | IC50 (HepG2 cells [4]; [6]): 39.8 µM | Emax (HepG2 cells [4]): 87%

Source: PMC6112376, “Comprehensive Analyses and Prioritization of Tox21 10K Chemicals Affecting Mitochondrial Function by in-Depth Mechanistic Studies” (Environmental Health Perspectives, 2018)
